Among the test systems are Escherichia coli HB101; Sporothrix schenckii; Cryptococcus neoformans; Escherichia coli C25.
Holding throughout (assay): ≥ marks a high value that may be exact or a test limit, other limits are often not marked, values filed in µg/mL are converted to µM
Experiment [1] deals with Staphylococcus aureus Cowan 1.
The subject of experiment [2] is Leishmania major MHOM/IL/67/JERICHO-II.
The test system of experiment [3] is Candida albicans ATCC 10231.
The test system of experiment [4] is Staphylococcus aureus ATCC BAA-44.
In experiment [5] the test system is Staphylococcus aureus ATCC 29213.
The subject of experiment [6] is Staphylococcus aureus ATCC 25923.
The subject of experiment [7] is Bacillus subtilis ATCC 6633.
For experiment [8], the system named is Staphylococcus aureus ATCC 33592.
The subject of experiment [9] is Staphylococcus aureus ATCC 700698.
The test system of experiment [10] is Klebsiella pneumoniae ATCC 27736.
The test system of experiment [11] is Staphylococcus aureus ATCC 700699.
Experiment [12] deals with Candida parapsilosis ATCC 22019.
For experiment [13], the system named is Escherichia coli ATCC 9637.
Experiment [14] relates to Pseudomonas aeruginosa ATCC BAA-427.

Values after ≈ are worked out from the molar mass of the structure shown.

Consider `CSCC[C@H](NC(=O)[C@@H](NC(=O)CNC(=O)[C@H](CC(C)C)NC(=O)[C@H](CCCCN)NC(=O)[C@H](CCCCN)NC(=O)[C@H](CC(C)C)NC(=O)[C@H](CCSC)NC(=O)[C@@H](NC(=O)[C@H](CCCCN)NC(=O)[C@H](Cc1c[nH]c2ccccc12)NC(=O)[C@H](CC(C)C)NC(=O)[C@H](C)N)[C@@H](C)O)[C@@H](C)O)C(N)=O` [ALWKTMLKKLGTM], for which the MIC (in experiment [1]; in the experiment on Escherichia coli HB101; in [2]) was no less than 50.6 µM throughout.

On to `CC[C@H](C)[C@H](NC(=O)[C@H](C)NC(=O)CNC(=O)[C@H](CCCCN)NC(=O)[C@@H](NC(=O)[C@H](CC(C)C)NC(=O)[C@H](Cc1c[nH]c2ccccc12)NC(=O)CNC(=O)[C@H](Cc1ccccc1)NC(=O)[C@@H](N)Cc1ccccc1)[C@@H](C)CC)C(=O)N[C@@H](Cc1cnc[nH]1)C(=O)N[C@@H](C)C(=O)N1CCC[C@H]1C(=O)N[C@@H](CCCCN)C(=O)N[C@@H](C)C(=O)N[C@H](C(=O)N[C@@H](Cc1cnc[nH]1)C(=O)N1CCC[C@H]1C(=O)N[C@@H](CC(C)C)C(=O)N[C@H](C(=O)N[C@@H](Cc1cnc[nH]1)C(=O)N[C@@H](CCCN=C(N)N)C(=O)N[C@@H](CCCN=C(N)N)C(=O)N[C@@H](CCCN=C(N)N)C(=O)N[C@@H](Cc1cnc[nH]1)C(=O)O)[C@@H](C)CC)[C@@H](C)CC` [FFGWLIKGAIHAPKAIHPLIHRRRH], for which the MIC in experiment [3] was greater than 30 µM; in experiment [4], 3 µM (≈ 8.92 µg/mL); in [5], 3 µM (≈ 8.92 µg/mL); in experiment [6] it was 3 µM (≈ 8.92 µg/mL); in experiment [7] it was 3 µM (≈ 8.92 µg/mL); in experiment [8], 1.6 µM (≈ 4.76 µg/mL). For the same molecule, the MIC is 3 µM (≈ 8.92 µg/mL) in experiment [9]; 27.2 µM (≈ 80.9 µg/mL) in [10]; 30 µM (≈ 89.2 µg/mL) with Sporothrix schenckii; 3 µM (≈ 8.92 µg/mL) in experiment [11]; 30 µM (≈ 89.2 µg/mL) against Cryptococcus neoformans; 30 µM (≈ 89.2 µg/mL) in experiment [12]. For the same molecule, the MIC in [13] stood at 6.8 µM (≈ 20.2 µg/mL); in [14], 13.6 µM (≈ 40.4 µg/mL).

For `CC[C@H](C)[C@H](NC(=O)[C@H](Cc1ccc(O)cc1)NC(=O)[C@H](CCCN=C(N)N)NC(=O)[C@H](CCCN=C(N)N)NC(=O)[C@@H](N)CCCN=C(N)N)C(=O)NCC(=O)N[C@@H](CCCN=C(N)N)C(=O)N[C@@H](Cc1ccc(O)cc1)C(=O)N[C@H](C(=O)N[C@@H](CCCN=C(N)N)C(=O)N[C@@H](Cc1ccccc1)C(=O)N[C@@H](Cc1c[nH]c2ccccc12)C(=O)N[C@@H](CCCCN)C(N)=O)C(C)C` [RRRYIGRYVRFWK], the MIC in experiment [6] was 8.4 µM (≈ 15.6 µg/mL); in the experiment with Escherichia coli C25, 2.1 µM (≈ 3.9 µg/mL).

Values taken from DBAASP.
